We go through 21 molecules from PubChem BioAssay (NCI).

What all share (test): NCI anticancer screen, dose series, 48 h
Test [1] has as its system EKVX NSCLC.
For test [2], the system named is KM20L2 colon.
Test [3] concerns DLD-1 colon.
Test [4] concerns HOP-62 NSCLC.
For test [5], the system named is M19-MEL melanoma.
For test [6], the system named is DMS 114 small cell lung.
Test [7] has as its system UACC-62 melanoma.
The subject of test [8] is LXFL 529 NSCLC.
In test [9] the test system is NCI-H460 lung.
For test [10], the system named is DMS 273 small cell lung.
The subject of test [11] is SNB-78 CNS.

Each structure is given as a SMILES string.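 Tested at 5 concentrations; 48 h exposure; 96-well plates; endpoints linearly interpolated, else capped at highest concentration. TGI: concentration producing complete growth inhibition.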

For the molecule `COC(=O)C1(C)NCCc2c1[nH]c1ccccc21` (stereo not drawn), the TGI in test [1], in test [2], in [3], in test [4], in test [5] and in test [6] was above 100 µM each time. Moreover, the TGI in test [7] and in test [8] was above 100 µM each time.

On to `O=C(C/C=C/c1ccccc1)c1ccccc1`, for which the TGI in [9] is 60.6 µM; in test [1] it was above 100 µM; in test [4], 73.7 µM; in test [7] it was 26.4 µM.

Regarding `O=c1oc2ccc3ccccc3c2cc1-c1nc2ccc([N+](=O)[O-])cc2o1`, the TGI in test [9] is above 100 µM; in test [1] it was above 100 µM; in test [4], above 45.2 µM; in test [7], above 100 µM.

For the molecule `O=C1CC2SC(COCc3ccccc3)(CCN2Cc2ccccc2)C1` (stereo not drawn), the TGI in test [9], in test [1], in test [4] and in test [7] was above 100 µM each time.

Take `COC1=CC(=O)C2=C(C[C@@]3(C)C(=C2)C(CO)=CC[C@H]3O)C1=O`: the TGI worked out at 60.7 µM in test [9], 38.8 µM in [1], 49.6 µM in test [4] and 32.4 µM in test [7].

For `CC(O)[C@@]1(c2ccccc2)CC2(CCN(C)CC2)O[C@H]1C` (stereo partly drawn), the TGI in test [9], in test [1], in [4] and in [7] was above 100 µM throughout.

For the molecule `COc1ccc(/C(=N\Nc2ccccn2)c2ccccn2)cc1`, the TGI in [9] worked out at 3.08 µM; in test [1] it was 13.6 µM; in [4], 10.4 µM; in [7], 6.44 µM.

`CC[C@H](C)[C@H](NC(=O)[C@@]1(O)[C@H](O)[C@]2(CC)C=CCN3CC[C@@]4(c5cc(Br)c(OC)cc5N(C)[C@@H]14)[C@@H]32)C(=O)OC`: the TGI in test [9] is above 100 µM; in test [1], above 100 µM; in test [4] it was above 100 µM; in test [7], 28.9 µM.

With `Cc1csc(NNC(=O)Nc2ccccc2)n1`, the TGI in [9], in [1], in test [4] and in test [7] was above 100 µM throughout.

As for `N#Cc1ccc(C2NN=CC23C(=O)c2ccccc2OC3c2ccccc2)cc1` (stereo not drawn), the TGI in [9] is above 100 µM; in test [1], 84.8 µM; in test [4], above 100 µM; in [7], above 100 µM.

In the case of `CC1=C2C3OC(=O)C(C)C3CCC2(C)C=CC1=Nc1ccccc1` (stereo not drawn), the TGI in [9], in [1], in test [10], in [11], in test [2] and in test [3] was above 100 µM each time. For the same molecule, the TGI in [4], in [5], in test [6] and in [7] was above 100 µM throughout.

Regarding `CCCCC(=O)Nc1ccc2c(C)cc(-c3ccc(-c4cc(-c5ccc(C)cc5)cc(-c5ccc(-c6cc(C)c7ccc(NC(=O)CCCC)nc7n6)cc5)n4)cc3)nc2n1`, the TGI in [9], in [1], in test [4] and in [7] was above 100 µM each time.

Regarding `CN(C)c1ccc(/C=C/c2cc(-c3ccccc3)[n+](C)n2-c2ccccc2)cc1`, the TGI in test [9] was above 100 µM; in test [1] it was 10.8 µM; in test [4], 12.4 µM; in [7], above 39.7 µM.

Take `Cc1cccc2c1c(=O)c1c(O)cc(O)cc1n2C`: the TGI in [9], in test [1], in test [4] and in test [7] was above 100 µM each time.

For `COc1ccc(/C=C/C(=O)c2ccc(OC(=O)/C=C/c3ccccc3)cc2)cc1`, the TGI was 97.8 µM in test [9], above 92.2 µM in test [1], above 100 µM in [4] and above 63.7 µM in [7].

In the case of `CC[C@@]1(CCC(=O)NCCc2c[nH]c3ccccc23)CCC(=O)N2CCc3c([nH]c4ccccc34)[C@H]21`, the TGI is above 100 µM in test [9], above 100 µM in test [1], above 100 µM in test [4] and 65.3 µM in test [7].

With `CC(C)[C@@H](C)[C@@]1(C)C[C@@H]1[C@@H](C)[C@H]1CC[C@@H]([C@@H]2CC=C3C[C@@H](O)CC[C@]3(C)C2=O)[C@]1(C)CCO`, the TGI in test [9] was 3.32 µM; in test [1], 26 µM; in test [4] it was 31.2 µM; in [7] it was 27.7 µM.

Turning to `CCCCCCCCC/C=C1/CC(CO)(COC(=O)c2ccccc2)OC1=O` (stereo not drawn), the TGI in test [9] turned out to be 22 µM; in test [1] it was 28.2 µM; in test [4] it was 19 µM; in [7], 28.1 µM.

`CCOC(=O)c1cc(C2CCN(Cc3ccccc3)C2=S)c(C(=O)C=[N+]=[N-])[nH]1` (stereo not drawn): the TGI in test [9] was 64.1 µM; in test [1], 89.6 µM; in test [4] it was above 100 µM; in test [7] it was 50.7 µM.

Take `C=C1Cc2cc(OC)c(OC)c(OC)c2-c2ccc(SC)c(=O)cc21`: the TGI in [9] was below 0.035 µM; in test [1], 18.8 µM; in [11] it was 49.4 µM; in test [3], 3.7 µM; in test [4], 7.8 µM; in test [5], 2.42 µM. The TGI is below 0.0279 µM in test [6] and 1.81 µM in test [8].

Take `COc1cc(/C=N/NC2=NCCCCN2)ccc1O`: the TGI in test [9], in test [1], in [4] and in [7] was above 100 µM throughout.
